We go through one molecule from patent publication US5426111A, “[Alkoxy-, alkenyloxy-, alkynyloxy-, and phenylmethyloxyalkoxycycloalkyl or alkoxycycloheteroalkyl]naphtho[2,3-c]furan-1(3H)-one inhibitors of 5-lipoxygenase” (Abbott Laboratories, priority 1994, dated 1995).

The experiment deals with LTB4 biosynthesis. Put plainly: Calcium ionophore-induced LTB4 biosynthesis in human whole blood. The following applies: @ 100 nm; human heparinized whole blood, calcium ionophore A23187 challenge, LTB4 by radioimmunoassay. It is filed as cell-based. As to the method:
Inhibition of leukotriene biosynthesis was evaluated in an assay, involving calcium ionophore-induced LTB4 biosynthesis expressed human whole blood. Human heparinized whole blood was preincubated with test compounds or vehicle for 15 min at 37° C. followed by calcium ionophore A23 187 challenge (final concentration of 8.3 μM) and the reaction terminated after 30 min by adding two volumes of methanol containing prostaglandin B2 as an internal recovery standard. The methanol extract was analyzed for LTB4 using a commercially available radioimmunoassay.

Consider `COC1(/C=C/COc2ccc3c(-c4ccc(F)cc4)c4c(cc3c2)C(=O)OC4)CCOCC1` [Example 1, 4-(4-fluorophenyl)-7-[3-(4-methoxytetrahydro-2H-pyran-4-yl)-2-propenyloxy]naptho[2,3-c]furan-1(3H)-one], for which the “inhibition of leukotriene biosynthesis” value amounted to 55%.
